30 molecules from US10738056B2 (Aduro BioTech, Inc., priority 2017, dated 2020) can be followed below.

Where only a bound is given, the exact number is not on record here.

The target of the experiment is Human cGAS amino acids 155-522 (Homo sapiens (Human), UniProt Q8N884). Description: cGAS biochemical activity assay (ATP remaining, Kinase-Glo Max luminescence). The following applies: human cGAS 155-522, ATP remaining (Kinase-Glo Max); read-out: cGAS IC50.
Chain of Human cGAS amino acids 155-522 (Q8N884 157-522): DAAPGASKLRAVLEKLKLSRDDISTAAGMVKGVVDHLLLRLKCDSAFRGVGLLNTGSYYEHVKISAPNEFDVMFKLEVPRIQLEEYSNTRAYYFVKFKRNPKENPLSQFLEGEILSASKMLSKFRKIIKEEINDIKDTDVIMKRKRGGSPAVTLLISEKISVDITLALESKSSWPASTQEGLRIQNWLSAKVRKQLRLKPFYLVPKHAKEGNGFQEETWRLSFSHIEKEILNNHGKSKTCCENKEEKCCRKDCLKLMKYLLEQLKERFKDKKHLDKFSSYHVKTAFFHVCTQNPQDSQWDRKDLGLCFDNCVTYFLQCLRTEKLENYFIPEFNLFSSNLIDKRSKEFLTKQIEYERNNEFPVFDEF
As for `COc1ccccc1-c1c(C(F)(F)F)nn2c(=O)c(-c3nc4c(OC)cccc4o3)c(C)[nH]c12` [Compound C1086, 6-(4-methoxybenzo[d]oxazol-2-yl)-3-(2-methoxyphenyl)-5-methyl-2-(trifluoromethyl)pyrazolo[1,5-a]pyrimidin-7(4H)-one], the IC50 (usually the midpoint of a concentration-inhibition curve) was greater than 250 µM.

On to `COc1cncc(NC(=O)c2c(C)[nH]c3c(-c4ccccc4)c(C(F)(F)F)nn3c2=O)c1` [Compound A1094, N-(5-methoxypyridin-3-yl)-5-methyl-7-oxo-3-phenyl-2-(trifluoromethyl)-4,7-dihydropyrazolo[1,5-a]pyrimidine-6-carboxamide], for which the IC50 is less than 20 µM.

`Cc1[nH]c2c(-c3ccccc3)c(C(F)(F)F)nn2c(=O)c1C(=O)Nc1[nH]nc(C(F)(F)F)c1C(C)C` [Compound A1058, N-(4-isopropyl-3-(trifluoromethyl)-1H-pyrazol-5-yl)-5-methyl-7-oxo-3-phenyl-2-(trifluoromethyl)-4,7-dihydropyrazolo[1,5-a]pyrimidine-6-carboxamide]: the IC50 lay in the range of 20 to 250 µM.

Turning to `Cc1[nH]c2c(-c3cccnc3)c(C(F)(F)F)nn2c(=O)c1-c1nc2c(o1)CCCC2` [Compound C1036, 5-methyl-3-(pyridin-3-yl)-6-(4,5,6,7-tetrahydrobenzo[d]oxazol-2-yl)-2-(trifluoromethyl)pyrazolo[1,5-a]pyrimidin-7(4H)-one], the IC50 is greater than 250 µM.

Consider `Cc1[nH]c2c(-c3ccccc3)c(C(F)(F)F)nn2c(=O)c1CC(=O)Nc1ccccc1N` [Compound B1001, N-(2-aminophenyl)-2-(5-methyl-7-oxo-3-phenyl-2-(trifluoromethyl)-4,7-dihydropyrazolo[1,5-a]pyrimidin-6-yl)acetamide], for which the IC50 lay within 20 to 250 µM.

Consider `COc1cccc2oc(-c3c(P(C)(C)=O)[nH]c4c(-c5ccccc5)c(C(F)(F)F)nn4c3=O)nc12` [Compound C1284, 5-(dimethylphosphoryl)-6-(4-methoxybenzo[d]oxazol-2-yl)-3-phenyl-2-(trifluoromethyl)pyrazolo[1,5-a]pyrimidin-7(4)-one], for which the IC50 was less than 20 µM.

As for `Cc1[nH]c2c(-c3ccccc3)c(C(F)(F)F)nn2c(=O)c1-c1n[nH]c(=O)o1` [Compound C1247, 5-(5-methyl-7-oxo-3-phenyl-2-(trifluoromethyl)-4,7-dihydropyrazolo[1,5-a]pyrimidin-6-yl)-1,3,4-oxadiazol-2(3H)-one], the half-inhibitory concentration (IC50) is less than 20 µM.

Regarding `COc1cccc2c1nc(-c1c(C)[nH]c3c(-c4ccccc4)c(C(F)(F)F)nn3c1=O)n2CC(=O)O` [Compound C1221, 2-(4-methoxy-2-(5-methyl-7-oxo-3-phenyl-2-(trifluoromethyl)-4,7-dihydropyrazolo[1,5-a]pyrimidin-6-yl)-1H-benzo[d]imidazol-1-yl)acetic acid], the IC50 was in the range of 20 to 250 µM.

Take `Cc1[nH]c2c(-c3ccccc3)c(C(F)(F)F)nn2c(=O)c1-c1nnc(N2CCN(C)CC2)o1` [Compound D1058, 5-methyl-6-(5-(4-methylpiperazin-1-yl)-1,3,4-oxadiazol-2-yl)-3-phenyl-2-(trifluoromethyl)pyrazolo[1,5-a]pyrimidin-7(4H)-one]: the IC50 lay in the range of 20 to 250 µM.

`Cc1[nH]c2c(-c3ccccc3)c(C(F)(F)F)nn2c(=O)c1-c1cccc(Cl)c1` [Compound C1004, 6-(3-chlorophenyl)-5-methyl-3-phenyl-2-(trifluoromethyl)pyrazolo[1,5-a]pyrimidin-7(4H)-one]: the IC50 fell in the range of 20 to 250 µM.

With `Cc1[nH]c2c(-c3ccccc3)c(C(F)(F)F)nn2c(=O)c1-c1nnc(N)o1` [Compound D1075, 6-(5-amino-1,3,4-oxadiazol-2-yl)-5-methyl-3-phenyl-2-(trifluoromethyl)pyrazolo[1,5-a]pyrimidin-7(4H)-one], the concentration for half-maximal inhibition (IC50) was in the range of 20 to 250 µM.

In the case of `Cc1[nH]c2c(-c3ccccc3)c(C(F)(F)F)nn2c(=O)c1CCNC(=O)c1ccccc1` [Compound B1014, N-(2-(5-methyl-7-oxo-3-phenyl-2-(trifluoromethyl)-4,7-dihydropyrazolo[1,5-a]pyrimidin-6-yl)ethyl)benzamide], the IC50 lay in the range of 20 to 250 µM.

As for `COc1nccnc1NC(=O)c1c(C)[nH]c2c(-c3ccccc3)c(C(F)(F)F)nn2c1=O` [Compound A1097, N-(3-methoxypyrazin-2-yl)-5-methyl-7-oxo-3-phenyl-2-(trifluoromethyl)-4,7-dihydropyrazolo[1,5-a]pyrimidine-6-carboxamide], the IC50 was in the range of 20 to 250 µM.

Consider `COc1cccc2oc(-c3c(C)[nH]c4c(-c5ccccc5)c(OC5CCOCC5)nn4c3=O)nc12` [Compound C1080, 6-(4-methoxybenzo[d]oxazol-2-yl)-5-methyl-3-phenyl-2-((tetrahydro-2H-pyran-4-yl)oxy)pyrazolo[1,5-a]pyrimidin-7(4H)-one], for which the IC50 was in the range of 20 to 250 µM.

For `COCCN(C)C(=O)c1[nH]c2c(-c3ccccc3)c(C(F)(F)F)nn2c(=O)c1-c1nc2c(OC)cccc2o1` [Compound C1179, 6-(4-methoxybenzo[d]oxazol-2-yl)-N-(2-methoxyethyl)-N-methyl-7-oxo-3-phenyl-2-(trifluoromethyl)-4,7-dihydropyrazolo[1,5-a]pyrimidine-5-carboxamide], the IC50 was 20 to 250 µM.

Consider `COc1ccc(-c2nnc(-c3c(C)[nH]c4c(-c5ccccc5)c(C(F)(F)F)nn4c3=O)o2)cc1` [Compound D1002, 6-(5-(4-methoxyphenyl)-1,3,4-oxadiazol-2-yl)-5-methyl-3-phenyl-2-(trifluoromethyl)pyrazolo[1,5-a]pyrimidin-7(4H)-one], for which the IC50 is greater than 250 µM.

As to `Cc1[nH]c2c(-c3ccccc3)c(C(F)(F)F)nn2c(=O)c1CC(=O)Nc1cccnc1` [Compound B1008, 2-(5-methyl-7-oxo-3-phenyl-2-(trifluoromethyl)-4,7-dihydropyrazolo[1,5-a]pyrimidin-6-yl)-N-(pyridin-3-yl)acetamide], the IC50 was in the range of 20 to 250 µM.

In the case of `Cc1[nH]c2c(-c3ccccc3)c(C(F)(F)F)nn2c(=O)c1-c1cnc2ccccc2c1` [Compound C1007, 5-methyl-3-phenyl-6-(quinolin-3-yl)-2-(trifluoromethyl)pyrazolo[1,5-a]pyrimidin-7(4H)-one], the IC50 lay in the range of 20 to 250 µM.

On to `Cc1[nH]c2c(-c3ccccc3)c(C(F)(F)F)nn2c(=O)c1-c1nnc(C2COCCN2C(=O)OCc2ccccc2)o1` (stereo not drawn) [Compound D1039, benzyl 3-(5-(5-methyl-7-oxo-3-phenyl-2-(trifluoromethyl)-4,7-dihydropyrazolo[1,5-a]pyrimidin-6-yl)-1,3,4-oxadiazol-2-yl)morpholine-4-carboxylate], for which the IC50 lay in the range of 20 to 250 µM.

`Cc1[nH]c2c(-c3ccccc3)c(C(F)(F)F)nn2c(=O)c1-c1nnc(C2CCCNC2)o1` (stereo not drawn) [Compound D1036, 5-methyl-3-phenyl-6-(5-(piperidin-3-yl)-1,3,4-oxadiazol-2-yl)-2-(trifluoromethyl)pyrazolo[1,5-a]pyrimidin-7(4H)-one]: the IC50 lay in the range of 20 to 250 µM.

Regarding `Cc1[nH]c2c(C3CCCC3)c(C(F)(F)F)nn2c(=O)c1-c1nnc(C2CCCCC2)o1` [Compound D1017, 6-(5-cyclohexyl-1,3,4-oxadiazol-2-yl)-3-cyclopentyl-5-methyl-2-(trifluoromethyl)pyrazolo[1,5-a]pyrimidin-7(4H)-one], the IC50 was greater than 250 µM.

On to `COc1cccc2oc(-c3c(C)[nH]c4c(-c5ccccc5)c(C(=O)O)nn4c3=O)nc12` [Compound C1043, 6-(4-methoxybenzo[d]oxazol-2-yl)-5-methyl-7-oxo-3-phenyl-4,7-dihydropyrazolo[1,5-a]pyrimidine-2-carboxylic acid], for which the IC50 is greater than 250 µM.

On to `Cc1[nH]c2c(-c3ccccc3)c(C(F)(F)F)nn2c(=O)c1C1=N[C@H](C(=O)O)CO1` [Compound C1192, (S)-2-(5-methyl-7-oxo-3-phenyl-2-(trifluoromethyl)-4,7-dihydropyrazolo[1,5-a]pyrimidin-6-yl)-4,5-dihydrooxazole-4-carboxylic acid], for which the IC50 was less than 20 µM.

As to `Cc1[nH]c2c(-c3ccccc3)c(C(F)(F)F)nn2c(=O)c1-c1nnc(N2CCCC(CN)C2)o1` (stereo not drawn) [Compound D1083, 6-(5-(3-(aminomethyl)piperidin-1-yl)-1,3,4-oxadiazol-2-yl)-5-methyl-3-phenyl-2-(trifluoromethyl)pyrazolo[1,5-a]pyrimidin-7(4H)-one], the 50% inhibitory concentration (IC50) was 20 to 250 µM.

In the case of `Cc1[nH]c2c(-c3ccccc3)c(C(F)(F)F)nn2c(=O)c1C(=O)Nc1cccc(OC(F)(F)F)c1` [Compound A1050, 5-methyl-7-oxo-3-phenyl-N-(3-(trifluoromethoxy)phenyl)-2-(trifluoromethyl)-4,7-dihydropyrazolo[1,5-a]pyrimidine-6-carboxamide], the IC50 is 20 to 250 µM.

Take `COc1cccc2oc(-c3c(C)[nH]c4c(-c5ccccn5)c(C(F)(F)F)nn4c3=O)nc12` [Compound C1127, 6-(4-methoxybenzo[d]oxazol-2-yl)-5-methyl-3-(pyridin-2-yl)-2-(trifluoromethyl)pyrazolo[1,5-a]pyrimidin-7(4H)-one]: the IC50 lay within 20 to 250 µM.

Regarding `COc1cccc2oc(-c3c(C4CCC(C(=O)O)CC4)[nH]c4c(-c5ccccc5)c(C(F)(F)F)nn4c3=O)nc12` (single isomer, unassigned) [Compound C1238, 4-(6-(4-methoxybenzo[d]oxazol-2-yl)-7-oxo-3-phenyl-2-(trifluoromethyl)-4,7-dihydropyrazolo[1,5-a]pyrimidin-5-yl)cyclohexane-1-carboxylic acid], the IC50 lay in the range of 20 to 250 µM.

As to `COc1cccc2c1nc(-c1c(C)[nH]c3c(-c4ccccc4)c(C(F)(F)F)nn3c1=O)n2C` [Compound C1087, 6-(4-methoxy-1-methyl-1H-benzo[d]imidazol-2-yl)-5-methyl-3-phenyl-2-(trifluoromethyl)pyrazolo[1,5-a]pyrimidin-7(4H)-one], the IC50 lay in the range of 20 to 250 µM.

As to `COCC1CCCCN1c1nnc(-c2c(C)[nH]c3c(-c4ccccc4)c(C(F)(F)F)nn3c2=O)o1` (stereo not drawn) [Compound D1060, 6-(5-(2-(methoxymethyl)piperidin-1-yl)-1,3,4-oxadiazol-2-yl)-5-methyl-3-phenyl-2-(trifluoromethyl)pyrazolo[1,5-a]pyrimidin-7(4H)-one], the IC50 lay within 20 to 250 µM.

In the case of `Cc1[nH]c2c(-c3ccccc3)c(C(F)(F)F)nn2c(=O)c1-c1ccc2nccn2c1` [Compound C1006, 6-(imidazo[1,2-a]pyridin-6-yl)-5-methyl-3-phenyl-2-(trifluoromethyl)pyrazolo[1,5-a]pyrimidin-7(4H)-one], the IC50 was greater than 250 µM.
